Laboratory results taken from the supplement of paper PMC11061612.

Columns and labels:
Assay in all cases: Bliss excess, mean over the matrix (fraction); higher = more synergy
CS1 (Chondrosarcoma) = system: CS1 (Chondrosarcoma)
Method in brief: (§1)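 Cell lines grown in DMEM/F12 or RPMI with 10% FBS were plated in 1536-well plates and held 24 hours at 37°C, 5% CO2 before 72 hours of exposure to two-drug dose matrices, with DMSO typically at 0.2%. CellTiter-Glo 2.0 luminescence gave viability, which was converted to inhibition. Vehicle wells were set to 0 and blank wells to 1. Combination Emax is the second-highest inhibition in the matrix, and Bliss excess is the observed combination effect minus the expected EA + EB − EA·EB, where EA and EB are the single-agent effects.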

[1] = system: EKVX (Non-Small Cell Lung Carcinoma)
Method in brief: as §1

[2] = system: ETK-1 (Biliary Tract Carcinoma)
Method in brief: as §1

[3] = system: GDM-1 (Acute Myeloid Leukemia)
Method in brief: as §1

[4] = system: JHH-6 (Hepatocellular Carcinoma)
Method in brief: as §1

[5] = system: KG-1 (Acute Myeloid Leukemia)
Method in brief: as §1

[6] = system: MEG-01 (Chronic Myelogenous Leukemia)
Method in brief: as §1

[7] = system: NCI-H1688 (Small Cell Lung Carcinoma)
Method in brief: as §1

[8] = system: NOMO-1 (Acute Myeloid Leukemia)
Method in brief: as §1

SK-MEL-1 (Melanoma) = system: SK-MEL-1 (Melanoma)
Method in brief: as §1

[9] = system: SLVL (B-Cell Non-Hodgkin's Lymphoma)
Method in brief: as §1

[10] = system: SNG-M (Endometrial Carcinoma)
Method in brief: as §1

| SMILES | Bliss excess (CS1 (Chondrosarcoma)) | Bliss excess [1] | Bliss excess [2] | Bliss excess [3] | Bliss excess [4] | Bliss excess [5] | Bliss excess [6] | Bliss excess [7] | Bliss excess [8] | Bliss excess (SK-MEL-1 (Melanoma)) | Bliss excess [9] | Bliss excess [10] |
| --- | --- | --- | --- | --- | --- | --- | --- | --- | --- | --- | --- | --- |
| Cc1cc2ncnn2cc1Nc1ncc2c(n1)n(C1CCOCC1)c(=O)n2C [AZD7648] + C[C@@H]1COCCN1C2=NC(=NC(=C2)C3(CC3)[S@](=N)(=O)C)C4=C5C=CNC5=NC=C4 [AZD6738] (first compound max 10 µM, 7x7, partner max 10 µM) | 0.0024 | 0.0353 | -0.0173 | -0.022 | 0.036 | -0.0024 | -0.0473 | 0.0136 | 0.0248 | -0.0388 | -0.0178 | -0.0217 |
| COc1cc2c(cc1OCCCCCOc1cc3c(cc1OC)C(=O)N1C=C(C)C[C@H]1C=N3)N=C[C@@H]1CC(C)=CN1C2=O [SG3199] + O=C(c1cc(Cc2n[nH]c(=O)c3ccccc23)ccc1F)N1CCN(C(=O)C2CC2)CC1 [Olaparib] (first compound max 0.001 µM, 7x7, partner max 10 µM) | -0.0451 | -0.0424 | -0.0021 | -0.0311 | -0.0353 | 0.0015 | -0.0326 | -0.0264 | -0.0328 | -0.0239 | -0.0314 | -0.0222 |
| Cc1cc2ncnn2cc1Nc1ncc2c(n1)n(C1CCOCC1)c(=O)n2C [AZD7648] + CN(C)CCCOc1ccc(-c2ccc3ncc4c(c3c2)n(C2CCOCC2)c(=O)n4C)cn1 [AZD0156] (first compound max 10 µM, 7x7, partner max 1 µM) | -0.0028 | 0.0001 | -0.0041 | -0.0215 | -0.0033 | -0.0155 | -0.0108 | 0.0029 | 0.0371 | -0.0082 | -0.0164 | 0.0073 |
| CN(CCO)CC[C@H](CSc1ccccc1)Nc1ccc(S(=O)(=O)NC(=O)c2ccc(N3CCC([C@@H](O)c4ccccc4-c4ccc(Cl)cc4)CC3)cc2)cc1S(=O)(=O)C(F)(F)F [AZD4320] + CN(C)CCCOc1ccc(-c2ccc3ncc4c(c3c2)n(C2CCOCC2)c(=O)n4C)cn1 [AZD0156] (first compound max 1 µM, 7x7, partner max 1 µM) | -0.0477 | -0.0392 | -0.0509 | -0.0248 | -0.0367 | 0.0215 | -0.0262 | 0.0127 | 0.0017 | -0.0254 | -0.0117 | -0.0467 |
| CN(CCO)CC[C@H](CSc1ccccc1)Nc1ccc(S(=O)(=O)NC(=O)c2ccc(N3CCC([C@@H](O)c4ccccc4-c4ccc(Cl)cc4)CC3)cc2)cc1S(=O)(=O)C(F)(F)F [AZD4320] + C=CCn1c(=O)c2cnc(Nc3ccc(N4CCN(C)CC4)cc3)nc2n1-c1cccc(C(C)(C)O)n1 [AZD1775] (first compound max 1 µM, partner max 1 µM) | -0.0017 | -0.0382 | -0.0295 | 0.0814 | -0.0095 | 0.108 | 0.0516 | 0.0959 | 0.0233 | -0.0091 | 0.0422 | 0.104 |
| CN(CCO)CC[C@H](CSc1ccccc1)Nc1ccc(S(=O)(=O)NC(=O)c2ccc(N3CCC([C@@H](O)c4ccccc4-c4ccc(Cl)cc4)CC3)cc2)cc1S(=O)(=O)C(F)(F)F [AZD4320] + Cc1cc2ncnn2cc1Nc1ncc2c(n1)n(C1CCOCC1)c(=O)n2C [AZD7648] (first compound max 1 µM, 7x7, partner max 10 µM) | -0.02 | -0.0398 | -0.0639 | -0.0041 | -0.024 | 0.0526 | 0.0304 | 0.0024 | 0.0103 | -0.025 | 0.0119 | -0.0007 |
| COc1cccc(OCCCN)c1-c1cc(Nc2cnc(C#N)cn2)n[nH]1 [Prexasertib] + O=C(c1cc(Cc2n[nH]c(=O)c3ccccc23)ccc1F)N1CCN(C(=O)C2CC2)CC1 [Olaparib] (first compound max 1 µM, 7x7, partner max 10 µM) | -0.0635 | -0.0217 | 0.0573 | -0.0516 | 0.0128 | -0.0343 | -0.0981 | -0.0135 | -0.027 | -0.0435 | -0.0051 | -0.124 |
| Cc1cc2ncnn2cc1Nc1ncc2c(n1)n(C1CCOCC1)c(=O)n2C [AZD7648] + O=C(c1cc(Cc2n[nH]c(=O)c3ccccc23)ccc1F)N1CCN(C(=O)C2CC2)CC1 [Olaparib] (first compound max 10 µM, 7x7, partner max 10 µM) | -0.0193 | -0.0563 | 0.0223 | -0.011 | -0.0516 | -0.0312 | -0.0086 | -0.02 | -0.0359 | 0.0039 | -0.0027 | -0.0471 |
| C[C@@H]1COCCN1c1cc(C2([S@](C)(=N)=O)CC2)nc(-c2ccnc3[nH]ccc23)n1 [AZD6738] + O=C(c1cc(Cc2n[nH]c(=O)c3ccccc23)ccc1F)N1CCN(C(=O)C2CC2)CC1 [Olaparib] (first compound max 10 µM, 7x7, partner max 10 µM) | 0.0318 | 0.0206 | 0.0197 | -0.0135 | -0.0039 | -0.0154 | -0.0458 | 0.0133 | -0.0031 | -0.0012 | -0.0355 | 0.0294 |
| CCN(CCO)CCCOc1ccc2c(Nc3cc(CC(=O)Nc4cccc(F)c4)[nH]n3)ncnc2c1 [AZD2811] + C=CCn1c(=O)c2cnc(Nc3ccc(N4CCN(C)CC4)cc3)nc2n1-c1cccc(C(C)(C)O)n1 [AZD1775] (first compound max 1 µM, partner max 1 µM) | 0.0264 | -0.0599 | 0.0395 | -0.0484 | 0.0092 | 0.0591 | -0.0323 | -0.006 | 0.0412 | -0.0323 | -0.04 | -0.0356 |
| CN(CCO)CC[C@H](CSc1ccccc1)Nc1ccc(S(=O)(=O)NC(=O)c2ccc(N3CCC([C@@H](O)c4ccccc4-c4ccc(Cl)cc4)CC3)cc2)cc1S(=O)(=O)C(F)(F)F [AZD4320] + CCN(CCO)CCCOc1ccc2c(Nc3cc(CC(=O)Nc4cccc(F)c4)[nH]n3)ncnc2c1 [AZD2811] (first compound max 1 µM, 7x7, partner max 1 µM) | 0.0355 | -0.0476 | -0.0297 | 0.0067 | 0.0044 | 0.0803 | -0.0205 | 0.0729 | 0.208 | -0.0353 | 0.135 | 0.0407 |
| Cc1c2c(nn1C)CSCc1cc(n(C)n1)CSc1cc(c3ccccc3c1)OCCCc1c(C(=O)O)n(C)c3c-2c(Cl)ccc13 [AZD5991] + CCN(CCO)CCCOc1ccc2c(Nc3cc(CC(=O)Nc4cccc(F)c4)[nH]n3)ncnc2c1 [AZD2811] (first compound max 1 µM, 7x7, partner max 1 µM) | -0.044 | -0.0356 | -0.0018 | 0.0444 | -0.0298 | 0.032 | 0.002 | 0.0059 | 0.0894 | -0.0194 | 0.0734 | 0.0446 |
| CN(CCO)CC[C@H](CSc1ccccc1)Nc1ccc(S(=O)(=O)NC(=O)c2ccc(N3CCC([C@@H](O)c4ccccc4-c4ccc(Cl)cc4)CC3)cc2)cc1S(=O)(=O)C(F)(F)F [AZD4320] + C[C@@H]1COCCN1C2=NC(=NC(=C2)C3(CC3)[S@](=N)(=O)C)C4=C5C=CNC5=NC=C4 [AZD6738] (first compound max 1 µM, 7x7, partner max 10 µM) | -0.0499 | -0.0458 | -0.0463 | -0.0144 | -0.023 | 0.0279 | -0.0267 | -0.0076 | 0.0303 | -0.0757 | 0.0156 | -0.0426 |
| Cc1cc2ncnn2cc1Nc1ncc2c(n1)n(C1CCOCC1)c(=O)n2C [AZD7648] + C=CCn1c(=O)c2cnc(Nc3ccc(N4CCN(C)CC4)cc3)nc2n1-c1cccc(C(C)(C)O)n1 [AZD1775] (first compound max 10 µM, partner max 1 µM) | 0.0046 | 0.0061 | -0.0144 | -0.0239 | 0.011 | -0.0652 | -0.0209 | -0.0094 | 0.0204 | -0.0561 | -0.035 | 0.0527 |
| Cc1c2c(nn1C)CSCc1cc(n(C)n1)CSc1cc(c3ccccc3c1)OCCCc1c(C(=O)O)n(C)c3c-2c(Cl)ccc13 [AZD5991] + C[C@@H]1COCCN1C2=NC(=NC(=C2)C3(CC3)[S@](=N)(=O)C)C4=C5C=CNC5=NC=C4 [AZD6738] (first compound max 1 µM, 7x7, partner max 10 µM) | 0.0029 | 0.0337 | 0.0015 | 0.0863 | -0.079 | 0.0155 | -0.0227 | 0.0406 | -0.0006 | -0.0255 | 0.031 | 0.0516 |
| CCN(CCO)CCCOc1ccc2c(Nc3cc(CC(=O)Nc4cccc(F)c4)[nH]n3)ncnc2c1 [AZD2811] + O=C(c1cc(Cc2n[nH]c(=O)c3ccccc23)ccc1F)N1CCN(C(=O)C2CC2)CC1 [Olaparib] (first compound max 1 µM, 7x7, partner max 10 µM) | -0.0515 | -0.0303 | 0.0049 | -0.0709 | -0.0127 | 0.0382 | -0.0628 | -0.0131 | 0.0454 | -0.0325 | -0.001 | -0.018 |
| Cc1c2c(nn1C)CSCc1cc(n(C)n1)CSc1cc(c3ccccc3c1)OCCCc1c(C(=O)O)n(C)c3c-2c(Cl)ccc13 [AZD5991] + C1CN(CCC1(C(=O)N[C@@H](CCO)C2=CC=C(C=C2)Cl)N)C3=NC=NC4=C3C=CN4 [Capivasertib] (first compound max 1 µM, 7x7, partner max 3 µM) | -0.0261 | -0.015 | -0.0525 | 0.0461 | -0.0163 | -0.0164 | -0.0122 | 0.015 | 0.0814 | -0.0373 | 0.004 | -0.0065 |
| Cc1c2c(nn1C)CSCc1cc(n(C)n1)CSc1cc(c3ccccc3c1)OCCCc1c(C(=O)O)n(C)c3c-2c(Cl)ccc13 [AZD5991] + Cc1cc2ncnn2cc1Nc1ncc2c(n1)n(C1CCOCC1)c(=O)n2C [AZD7648] (first compound max 1 µM, 7x7, partner max 10 µM) | -0.0282 | -0.069 | -0.0466 | -0.0295 | -0.0622 | -0.0136 | -0.0157 | -0.0093 | 0.0486 | -0.0152 | 0.0016 | 0.0071 |
| Cc1cc2ncnn2cc1Nc1ncc2c(n1)n(C1CCOCC1)c(=O)n2C [AZD7648] + CCN(CCO)CCCOc1ccc2c(Nc3cc(CC(=O)Nc4cccc(F)c4)[nH]n3)ncnc2c1 [AZD2811] (first compound max 10 µM, 7x7, partner max 1 µM) | -0.0403 | -0.0199 | -0.0025 | -0.036 | 0.0238 | 0.0351 | -0.0233 | 0.0154 | 0.131 | -0.0162 | 0.0756 | 0.0507 |
